Drawing on patent US9255072B2, “Pyrazole compounds and thiazole compounds as protein kinases inhibitors” (National Health Rsearch Institutes, priority 2011, dated 2016), this text covers IC50 for 13 compounds.

Read-outs that look alike come from different tables or passages of the source.

Holding throughout (type): biochemical
The target of test [1] is T1, Aurora A (Homo sapiens, UniProt O14965).
T1 construct: GST-Aurora A (residues S123-S401); GST (N); made in house; host or cells: Sf9 insect cells
T1 sequence (O14965 123-401): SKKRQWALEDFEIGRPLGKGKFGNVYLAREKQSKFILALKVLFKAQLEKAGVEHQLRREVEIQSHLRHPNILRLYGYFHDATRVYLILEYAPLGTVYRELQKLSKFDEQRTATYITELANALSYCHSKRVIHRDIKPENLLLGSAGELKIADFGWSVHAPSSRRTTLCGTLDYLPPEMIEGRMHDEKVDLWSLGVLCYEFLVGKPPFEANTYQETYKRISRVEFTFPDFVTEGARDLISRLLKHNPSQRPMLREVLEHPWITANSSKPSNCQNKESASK
Put plainly: Aurora kinase A Kinase-Glo kinase assay. The note with it: Aurora A assay, 5 μM ATP, read-out: IC50. The procedure: The recombinant GST-Aurora A (residues S123-S401) containing kinase domain were expressed in Sf9 insect cells. The kinase assay were carried out in 96-well plates with tested compound in a final volume of 50 μl reaction at 37° C. for 90 minutes with following components: 50 mM Tris-HCl pH 7.4, 10 mM NaCl, 10 mM MgCl2, 0.01% BSA, 5 μM ATP, 1 mM DTT and 15 μM tetra(LRRASLG) peptide, and 150 ng recombinant Aurora A. Following incubation, 50 μl Kinase-Glo Plus Reagent (Promega, Madison, Wis., USA) was added to each well and the mixture was incubated at 25° C. for 20 min. A 70-μL aliquot of each reaction mixture was transferred to a black microtiter plate and the luminescence was measured on Wallac Vector 1420 multilabel counter (PerkinElmer, Shelton, Conn., USA).

Test [2] deals with T2, VEGFR2 (Homo sapiens, UniProt P35968).
T2 construct: GST-VEGFR2 (residues V789-V1356); GST (N); made in house; host or cells: Sf9 insect cells
T2 sequence (P35968 789-1356): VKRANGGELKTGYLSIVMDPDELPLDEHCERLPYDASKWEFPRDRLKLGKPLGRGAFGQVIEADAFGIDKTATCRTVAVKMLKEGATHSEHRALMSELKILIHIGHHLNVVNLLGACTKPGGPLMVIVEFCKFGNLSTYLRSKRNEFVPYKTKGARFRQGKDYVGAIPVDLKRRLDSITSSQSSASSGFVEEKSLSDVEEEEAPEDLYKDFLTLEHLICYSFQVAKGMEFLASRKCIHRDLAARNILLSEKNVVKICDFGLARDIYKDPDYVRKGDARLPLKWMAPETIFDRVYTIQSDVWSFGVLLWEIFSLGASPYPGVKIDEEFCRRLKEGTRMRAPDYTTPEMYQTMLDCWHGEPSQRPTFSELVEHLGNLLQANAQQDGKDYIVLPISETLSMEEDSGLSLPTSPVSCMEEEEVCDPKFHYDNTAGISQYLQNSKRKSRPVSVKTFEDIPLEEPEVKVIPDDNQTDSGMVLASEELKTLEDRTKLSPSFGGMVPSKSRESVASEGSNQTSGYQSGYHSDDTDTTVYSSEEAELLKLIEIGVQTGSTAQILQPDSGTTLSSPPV
Briefly: VEGFR2 Kinase-Glo kinase assay. Particulars: 1 μM ATP. The procedure: (§1) The recombinant GST-VEGFR1 (residues R781-I1338) or GST-VEGFR2 (residues V789-V1356) containing kinase domain were expressed in Sf9 insect cells. The kinase assay were carried out in 96-well plates with tested compound in a final volume of 50 μl reaction at 30° C. for 120 minutes with following components: 25 mM HEPES pH 7.4, 10 mM MgCl2, 4 mM MnCl2, 0.5 mM Na3VO4, 2 mM DTT, 0.02% Triton X100, 0.01% BSA, 1 μM ATP, 2 μM polyGlu4:Tyr peptide, 50˜100 ng recombinant VEGFR1 or VEGFR2. Following incubation, 50 μl Kinase-Glo Plus Reagent (Promega, Madison, Wis., USA) was added to each well and the mixture was incubated at 25° C. for 20 min. A 70-μL aliquot of each reaction mixture was transferred to a black microtiter plate and the luminescence was measured on Wallac Vector 1420 multilabel counter (PerkinElmer, Shelton, Conn., USA).
Background: Kinase-Glo reads ATP consumption through a luciferase reaction.

In test [3] the target is T3, wt-FLT3 (Homo sapiens, UniProt P36888).
T3 construct: FLT3 kinase catalytic domain (residues Y567˜S993); made in house; host or cells: Sf9 insect cells (baculovirus, pBac-PAK8-GST-FLT3-KD plasmid)
T3 sequence (P36888 567-993): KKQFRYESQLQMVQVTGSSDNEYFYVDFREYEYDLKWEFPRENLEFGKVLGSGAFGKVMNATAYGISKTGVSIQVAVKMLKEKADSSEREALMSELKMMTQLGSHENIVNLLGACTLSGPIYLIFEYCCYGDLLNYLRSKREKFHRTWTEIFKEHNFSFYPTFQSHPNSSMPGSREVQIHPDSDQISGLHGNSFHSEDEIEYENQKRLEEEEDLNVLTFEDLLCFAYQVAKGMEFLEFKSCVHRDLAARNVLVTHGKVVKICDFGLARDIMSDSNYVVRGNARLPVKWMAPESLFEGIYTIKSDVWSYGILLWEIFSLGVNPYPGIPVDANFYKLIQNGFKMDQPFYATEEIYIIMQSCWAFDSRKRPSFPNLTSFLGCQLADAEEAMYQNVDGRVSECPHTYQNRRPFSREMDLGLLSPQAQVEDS
Briefly: FLT3 WT Kinase-Glo assay. The note with it: FLT3 WT Kinase-Glo, 1 μM ATP; read-out: IC50. As for the experimental part:
GST-FLT3-KD^WT containing the FLT3 kinase catalytic domain (residues Y567˜S993) were expressed in Sf9 insect cells transfected the baculovirus containing pBac-PAK8-GST-FLT3-KD plasmid. […] Following incubation, 50 μl Kinase-Glo Plus Reagent (Promega, Madison, Wis., USA) was added to each well and the mixture was incubated at 25° C. for 20 min. A 70-μL aliquot of each reaction mixture was transferred to a black microtiter plate and the luminescence was measured on Wallac Vector 1420 multilabel counter (PerkinElmer, Shelton, Conn., USA).

Test [4] has as its target T4, VEGFR1 (Homo sapiens, UniProt P17948).
T4 construct: GST-VEGFR1 (residues R781-I1338); GST (N); made in house; host or cells: Sf9 insect cells
T4 sequence (P17948 781-1338): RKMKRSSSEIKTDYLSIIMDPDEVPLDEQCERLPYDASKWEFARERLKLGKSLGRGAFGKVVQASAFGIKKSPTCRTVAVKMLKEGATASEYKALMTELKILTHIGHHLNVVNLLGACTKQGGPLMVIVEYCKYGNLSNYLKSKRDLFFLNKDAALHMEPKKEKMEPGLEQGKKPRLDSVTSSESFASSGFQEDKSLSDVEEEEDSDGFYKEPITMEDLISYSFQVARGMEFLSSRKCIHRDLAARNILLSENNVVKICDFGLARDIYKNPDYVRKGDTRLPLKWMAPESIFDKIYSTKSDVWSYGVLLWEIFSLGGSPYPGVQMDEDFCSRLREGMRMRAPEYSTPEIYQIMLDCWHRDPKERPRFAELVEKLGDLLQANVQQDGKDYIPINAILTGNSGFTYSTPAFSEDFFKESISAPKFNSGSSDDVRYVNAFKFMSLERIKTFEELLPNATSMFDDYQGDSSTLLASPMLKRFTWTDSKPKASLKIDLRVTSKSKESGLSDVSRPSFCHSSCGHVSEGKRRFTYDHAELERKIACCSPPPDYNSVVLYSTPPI
Put plainly: VEGFR1 Kinase-Glo kinase assay. Particulars: 1 μM ATP. The procedure:
as §1

Where [5] appears, read: VEGFR2 assay, bound in μM, read-out: IC50.
The mark [6] stands for this setting: VEGFR2 assay, ranges in nM, read-out: IC50.
The mark [7] stands for this setting: VEGFR1 assay, bound in μM, read-out: IC50.
Setting [8] is: VEGFR1 assay, bound in nM, read-out: IC50.

Regarding `CN1CCN(c2ccc(C(=O)Nc3cc(-c4cccc(NS(=O)(=O)c5ccccc5)c4)n[nH]3)cc2)CC1` [Compound 12, N1-(3-3-[(phenylsulfonyl)amino]phenyl-1H-5-pyrazolyl)-4-(4-methylpiperazino)benzamide], the IC50 (as a rule, the concentration at which inhibition is half-maximal) was under 1 µM in test [1] (bound in μM); under 1 µM in test [2] (setting [5]); 0.055 to 0.4 µM in test [2] (setting [6]); 1 to 20 nM in test [3]; under 1 µM in test [4] (setting [7]).

Regarding `CN1CCN(c2ccc(C(=O)Nc3cc(-c4ccc(CNC(=O)OCc5ccccc5)cc4)n[nH]3)cc2)CC1` [Compound 70, Benzyl-N-[4-(5-[4-(4-methylpiperazino)benzoyl]amino-1H-3-pyrazolyl)benzyl]carbamate], the IC50 was under 1 µM in test [1] (bound in μM); under 1 µM in test [2] (setting [5]); 0.055 to 0.4 µM in test [2] (setting [6]); 1 to 20 nM in test [3]; under 0.1 µM in test [4] (setting [8]); under 1 µM in test [4] (setting [7]).

Regarding `O=C(NCc1ccc(-c2cc(NC(=O)c3ccc(OCCN4CCOCC4)cc3)[nH]n2)cc1)Nc1ccccc1` [Compound 61a, N1-[3-(4-[(anilinocarbonyl)amino]methylphenyl)-1H-5-pyrazolyl]-4-(2-morpholinoethoxy)benzamide], the half-maximal inhibitory concentration (IC50) in test [1] (bound in μM) was under 1 µM; in test [2] (setting [5]), under 1 µM; in test [2] (setting [6]), 0.001 to 0.055 µM; in test [3], 1 to 20 nM.

With `CN1CCN(c2ccc(C(=O)Nc3cc(-c4ccc(NC(=O)Oc5ccccc5)cc4)n[nH]3)cc2)CC1` [Compound 68, Phenyl-N-[4-(5-[4-(4-methylpiperazino)benzoyl]amino-1H-3-pyrazolyl)phenyl]carbamate], the IC50 in test [2] (IC50, VEGFR2 assay, bound in μM) was under 1 µM; in test [2] (IC50, VEGFR2 assay, ranges in nM) it was 0.055 to 0.4 µM; in test [3], 1 to 20 nM; in test [4] (IC50, VEGFR1 assay, bound in μM), under 1 µM.

As to `CN1CCN(c2ccc(C(=O)Nc3cc(-c4ccc(NC(=O)Nc5ccccc5)cc4)n[nH]3)cc2)CC1` [Compound 30, N1-(3-4-[(anilinocarbonyl)amino]phenyl-1H-5-pyrazolyl)-4-(4-methylpiperazino)benzamide], the IC50 was under 1 µM in test [1] (bound in μM), under 1 µM in test [2] (setting [5]), 0.001 to 0.055 µM in test [2] (setting [6]) and 1 to 20 nM in test [3].

As for `CC(C)(C)c1cc(NC(=O)Nc2ccc(-c3cc(NC(=O)c4ccc(OCCN5CCOCC5)cc4)[nH]n3)cc2)no1` [Compound 44, N1-(3-4-[([5-(tert-butyl)-3-isoxazolyl]aminocarbonyl)amino]phenyl-1H-5-pyrazolyl)-4-(2-morpholinoethoxy)benzamide], the half-maximal inhibitory concentration (IC50) in test [1] (bound in nM) was under 0.2 µM; in test [1] (bound in μM), under 1 µM; in test [2] (setting [5]) it was under 1 µM; in test [2] (setting [6]), 0.001 to 0.055 µM; in test [3] it was 1 to 20 nM; in test [4] (setting [8]) it was under 0.1 µM. Also, the IC50 in test [4] (setting [7]) was under 1 µM.

Take `Cc1cccc(S(=O)(=O)Nc2cccc(-c3cc(NC(=O)c4ccc(N5CCN(C)CC5)cc4)[nH]n3)c2)c1` [Compound 15, N1-[3-(3-[(3-methylphenyl)sulfonyl]aminophenyl)-1H-5-pyrazolyl]-4-(4-methylpiperazino)benzamide]: the 50% inhibitory concentration (IC50) in test [1] (bound in μM) is under 1 µM; in test [2] (setting [5]), under 1 µM; in test [2] (setting [6]) it was 0.055 to 0.4 µM; in test [3], 1 to 20 nM; in test [4] (setting [7]), under 1 µM.

As for `Cc1nc(Nc2cc(-c3cccc(NS(=O)(=O)c4ccccc4)c3)n[nH]2)cc(N2CCN(C)CC2)n1` [Compound 85, N1-[3-(5-[2-methyl-6-(4-methylpiperazino)-4-pyrimidinyl]amino-1H-3-pyrazolyl)phenyl]-1-benzenesulfonamide], the IC50 in test [1] (bound in μM) was under 1 µM; in test [2] (setting [5]), under 1 µM; in test [2] (setting [6]), 0.055 to 0.4 µM; in test [3], 1 to 20 nM; in test [4] (setting [7]) it was under 1 µM.

Consider `Cc1cc(NC(=O)Nc2ccc(-c3cc(NC(=O)c4ccc(N5CCN(C)CC5)cc4)[nH]n3)cc2C)no1` [Compound 47, N1-3-[3-methyl-4-([(5-methyl-3-isoxazolyl)amino]carbonylamino)phenyl]-1H-5-pyrazolyl-4-(4-methylpiperazino)benzamide], for which the IC50 in test [1] (bound in μM) was under 1 µM; in test [2] (setting [5]), under 1 µM; in test [2] (setting [6]), 0.001 to 0.055 µM; in test [3], 1 to 20 nM.

On to `Cc1cc(NC(=O)Nc2ccc(-c3cnc(NC(=O)c4ccc(OCCN5CCOCC5)cc4)s3)cc2)no1` [Compound 120, N1-5-[4-([(5-methyl-3-isoxazolyl)amino]carbonylamino)phenyl]-1,3-thiazol-2-yl-4-(2-morpholinoethoxy)benzamide], for which the IC50 in test [1] (bound in nM) was under 0.2 µM.

Turning to `Cc1nc(Nc2ncc(-c3ccc(NC(=O)Nc4cc(C)on4)cc3)s2)cc(N2CCN(C)CC2)n1` [Compound 103, N-(5-methyl-3-isoxazolyl)-N′-[4-(2-[2-methyl-6-(4-methylpiperazino)-4-pyrimidinyl]amino-1,3-thiazol-5-yl)phenyl]urea], the IC50 in test [1] (bound in μM) is under 1 µM.

Take `CN1CCN(c2ccc(C(=O)Nc3cc(-c4ccc(NC(=O)c5ccccc5)cc4)n[nH]3)cc2)CC1` [Compound 10, N1-3-[4-(benzoylamino)phenyl]-1H-5-pyrazolyl-4-(4-methylpiperazino)benzamide]: the figures for the 50% inhibitory concentration (IC50) in test [1] (bound in nM) and in test [1] (bound in μM) were under 0.2 µM and under 1 µM, respectively.

`CCN1CCN(c2cc(Nc3ncc(-c4ccc(N)cc4)s3)nc(C)n2)CC1` [Compound 102]: the IC50 in test [1] (bound in nM) is under 0.2 µM; in test [3], 1 to 20 nM.
